Results from publication PMC8214221, “Sequence determinants in the cathelicidin LL-37 that promote inflammation via presentation of RNA to scavenger receptors” (The Journal of Biological Chemistry, 2021).
Residues, ends and D or L forms follow the SMILES beside them.

Tested on: normal human epidermal keratinocytes (NHEKs)
Assay: LDH release cytotoxicity assay in keratinocytes
Type: cell-based
Conditions: minimal concentration giving 50% LDH release by NHEKs
Text: Since LL-34 was the minimal truncation mutant of LL-37 that retained both antimicrobial and immune modulatory activity, we prepared a series of synthetic peptides with sequential substitutions of alanine at each amino acid position of the LL-34 parent peptide (Table 1). We compared the minimum inhibitory concentration (MIC) for the LL-34 parent peptide and the alanine mutants (LL-34 peptides—L1A and R34A) against methicillin-resistant Staphylococcus aureus strain USA300 (Fig. 1A). LL-34 peptides were incubated at concentrations of 0 to 100 μM with bacteria. The minimal concentration at which no growth was observed was noted after 18 h of incubation. […] Because of these changes in the MIC against S. aureus between the mutants, we investigated the effective toxicity profile of the peptides in normal human epidermal keratinocytes (NHEKs) by lactate dehydrogenase (LDH) release assay (Table 1). […] Most other peptides were cytotoxic at a minimal concentration of 10 μM, whereas LL-34—K15A was toxic at a concentration of 2.5 μM.
LDH cytotoxicity assay was performed according to manufacturer's instructions (Thermo Fisher Scientific). Culture supernatants from keratinocytes were used fresh for LDH assay after experimental treatments.

Row | SMILES | Minimal cytotoxic concentration in NHEK (LD50)
1 | CC[C@H](C)[C@H](NC(=O)[C@H](CCCCN)NC(=O)[C@H](CCC(=O)O)NC(=O)[C@H](CCCCN)NC(=O)[C@H](CO)NC(=O)[C@H](CCCCN)NC(=O)[C@H](CCCNC(=N)N)NC(=O)[C@H](Cc1ccccc1)NC(=O)[C@H](Cc1ccccc1)NC(=O)[C@H](CC(=O)O)NC(=O)CNC(=O)[C@H](CC(C)C)NC(=O)[C@@H](N)CC(C)C)C(=O)N[C@@H](C)C(=O)N[C@@H](CCCCN)C(=O)N[C@@H](CCC(=O)O)C(=O)N[C@@H](Cc1ccccc1)C(=O)N[C@@H](CCCCN)C(=O)N[C@@H](CCCNC(=N)N)C(=O)N[C@H](C(=O)N[C@H](C(=O)N[C@@H](CCC(N)=O)C(=O)N[C@@H](CCCNC(=N)N)C(=O)N[C@H](C(=O)N[C@@H](CCCCN)C(=O)N[C@@H](CC(=O)O)C(=O)N[C@@H](Cc1ccccc1)C(=O)N[C@@H](CC(C)C)C(=O)N[C@@H](CCCNC(=N)N)C(=O)N[C@@H](CC(N)=O)C(=O)N[C@@H](CC(C)C)C(=O)N[C@H](C(=O)N1CCC[C@H]1C(=O)N[C@@H](CCCNC(=N)N)C(=O)O)C(C)C)[C@@H](C)CC)C(C)C)[C@@H](C)CC [LL-34—G14A] (H-LLGDFFRKSKEKIAKEFKRIVQRIKDFLRNLVPR-OH; N-terminus and C-terminus assumed) | 5 µM
2 | CC[C@H](C)[C@H](NC(=O)[C@H](CCCCN)NC(=O)[C@H](CCC(=O)O)NC(=O)[C@H](C)NC(=O)[C@H](CO)NC(=O)[C@H](CCCCN)NC(=O)[C@H](CCCNC(=N)N)NC(=O)[C@H](Cc1ccccc1)NC(=O)[C@H](Cc1ccccc1)NC(=O)[C@H](CC(=O)O)NC(=O)CNC(=O)[C@H](CC(C)C)NC(=O)[C@@H](N)CC(C)C)C(=O)NCC(=O)N[C@@H](CCCCN)C(=O)N[C@@H](CCC(=O)O)C(=O)N[C@@H](Cc1ccccc1)C(=O)N[C@@H](CCCCN)C(=O)N[C@@H](CCCNC(=N)N)C(=O)N[C@H](C(=O)N[C@H](C(=O)N[C@@H](CCC(N)=O)C(=O)N[C@@H](CCCNC(=N)N)C(=O)N[C@H](C(=O)N[C@@H](CCCCN)C(=O)N[C@@H](CC(=O)O)C(=O)N[C@@H](Cc1ccccc1)C(=O)N[C@@H](CC(C)C)C(=O)N[C@@H](CCCNC(=N)N)C(=O)N[C@@H](CC(N)=O)C(=O)N[C@@H](CC(C)C)C(=O)N[C@H](C(=O)N1CCC[C@H]1C(=O)N[C@@H](CCCNC(=N)N)C(=O)O)C(C)C)[C@@H](C)CC)C(C)C)[C@@H](C)CC [LL-34—K10A] (H-LLGDFFRKSAEKIGKEFKRIVQRIKDFLRNLVPR-OH; N-terminus and C-terminus assumed) | 5 µM
3 | CC[C@H](C)[C@H](NC(=O)[C@H](CCCCN)NC(=O)[C@H](CCC(=O)O)NC(=O)[C@H](CCCCN)NC(=O)[C@H](CO)NC(=O)[C@H](CCCCN)NC(=O)[C@H](CCCNC(=N)N)NC(=O)[C@H](Cc1ccccc1)NC(=O)[C@H](Cc1ccccc1)NC(=O)[C@H](CC(=O)O)NC(=O)CNC(=O)[C@H](CC(C)C)NC(=O)[C@@H](N)CC(C)C)C(=O)NCC(=O)N[C@@H](CCCCN)C(=O)N[C@@H](CCC(=O)O)C(=O)N[C@@H](Cc1ccccc1)C(=O)N[C@@H](CCCCN)C(=O)N[C@@H](CCCNC(=N)N)C(=O)N[C@H](C(=O)N[C@@H](C)C(=O)N[C@@H](CCC(N)=O)C(=O)N[C@@H](CCCNC(=N)N)C(=O)N[C@H](C(=O)N[C@@H](CCCCN)C(=O)N[C@@H](CC(=O)O)C(=O)N[C@@H](Cc1ccccc1)C(=O)N[C@@H](CC(C)C)C(=O)N[C@@H](CCCNC(=N)N)C(=O)N[C@@H](CC(N)=O)C(=O)N[C@@H](CC(C)C)C(=O)N[C@H](C(=O)N1CCC[C@H]1C(=O)N[C@@H](CCCNC(=N)N)C(=O)O)C(C)C)[C@@H](C)CC)[C@@H](C)CC [LL-34—V21A] (H-LLGDFFRKSKEKIGKEFKRIAQRIKDFLRNLVPR-OH; N-terminus and C-terminus assumed) | 5 µM
4 | CC[C@H](C)[C@H](NC(=O)[C@H](CCCCN)NC(=O)[C@H](CCC(=O)O)NC(=O)[C@H](CCCCN)NC(=O)[C@H](CO)NC(=O)[C@H](CCCCN)NC(=O)[C@H](CCCNC(=N)N)NC(=O)[C@H](Cc1ccccc1)NC(=O)[C@H](Cc1ccccc1)NC(=O)[C@H](CC(=O)O)NC(=O)CNC(=O)[C@H](CC(C)C)NC(=O)[C@@H](N)CC(C)C)C(=O)NCC(=O)N[C@@H](C)C(=O)N[C@@H](CCC(=O)O)C(=O)N[C@@H](Cc1ccccc1)C(=O)N[C@@H](CCCCN)C(=O)N[C@@H](CCCNC(=N)N)C(=O)N[C@H](C(=O)N[C@H](C(=O)N[C@@H](CCC(N)=O)C(=O)N[C@@H](CCCNC(=N)N)C(=O)N[C@H](C(=O)N[C@@H](CCCCN)C(=O)N[C@@H](CC(=O)O)C(=O)N[C@@H](Cc1ccccc1)C(=O)N[C@@H](CC(C)C)C(=O)N[C@@H](CCCNC(=N)N)C(=O)N[C@@H](CC(N)=O)C(=O)N[C@@H](CC(C)C)C(=O)N[C@H](C(=O)N1CCC[C@H]1C(=O)N[C@@H](CCCNC(=N)N)C(=O)O)C(C)C)[C@@H](C)CC)C(C)C)[C@@H](C)CC [LL-34—K15A] (H-LLGDFFRKSKEKIGAEFKRIVQRIKDFLRNLVPR-OH; N-terminus and C-terminus assumed) | 2.5 µM
5 | CC[C@H](C)[C@H](NC(=O)[C@H](CCCCN)NC(=O)[C@H](CCC(=O)O)NC(=O)[C@H](CCCCN)NC(=O)[C@H](CO)NC(=O)[C@H](CCCCN)NC(=O)[C@H](CCCNC(=N)N)NC(=O)[C@H](Cc1ccccc1)NC(=O)[C@H](Cc1ccccc1)NC(=O)[C@H](CC(=O)O)NC(=O)CNC(=O)[C@H](CC(C)C)NC(=O)[C@@H](N)CC(C)C)C(=O)NCC(=O)N[C@@H](CCCCN)C(=O)N[C@@H](CCC(=O)O)C(=O)N[C@@H](Cc1ccccc1)C(=O)N[C@@H](C)C(=O)N[C@@H](CCCNC(=N)N)C(=O)N[C@H](C(=O)N[C@H](C(=O)N[C@@H](CCC(N)=O)C(=O)N[C@@H](CCCNC(=N)N)C(=O)N[C@H](C(=O)N[C@@H](CCCCN)C(=O)N[C@@H](CC(=O)O)C(=O)N[C@@H](Cc1ccccc1)C(=O)N[C@@H](CC(C)C)C(=O)N[C@@H](CCCNC(=N)N)C(=O)N[C@@H](CC(N)=O)C(=O)N[C@@H](CC(C)C)C(=O)N[C@H](C(=O)N1CCC[C@H]1C(=O)N[C@@H](CCCNC(=N)N)C(=O)O)C(C)C)[C@@H](C)CC)C(C)C)[C@@H](C)CC [LL-34—K18A] (H-LLGDFFRKSKEKIGKEFARIVQRIKDFLRNLVPR-OH; N-terminus and C-terminus assumed) | 10 µM
6 | CC[C@H](C)[C@H](NC(=O)[C@H](CCCCN)NC(=O)[C@H](CCC(=O)O)NC(=O)[C@H](CCCCN)NC(=O)[C@H](CO)NC(=O)[C@H](CCCCN)NC(=O)[C@H](CCCNC(=N)N)NC(=O)[C@H](Cc1ccccc1)NC(=O)[C@H](Cc1ccccc1)NC(=O)[C@H](CC(=O)O)NC(=O)CNC(=O)[C@H](CC(C)C)NC(=O)[C@@H](N)CC(C)C)C(=O)NCC(=O)N[C@@H](CCCCN)C(=O)N[C@@H](CCC(=O)O)C(=O)N[C@@H](Cc1ccccc1)C(=O)N[C@@H](CCCCN)C(=O)N[C@@H](CCCNC(=N)N)C(=O)N[C@H](C(=O)N[C@H](C(=O)N[C@@H](CCC(N)=O)C(=O)N[C@@H](CCCNC(=N)N)C(=O)N[C@H](C(=O)N[C@@H](CCCCN)C(=O)N[C@@H](CC(=O)O)C(=O)N[C@@H](Cc1ccccc1)C(=O)N[C@@H](CC(C)C)C(=O)N[C@@H](C)C(=O)N[C@@H](CC(N)=O)C(=O)N[C@@H](CC(C)C)C(=O)N[C@H](C(=O)N1CCC[C@H]1C(=O)N[C@@H](CCCNC(=N)N)C(=O)O)C(C)C)[C@@H](C)CC)C(C)C)[C@@H](C)CC [LL-34—R29A] (H-LLGDFFRKSKEKIGKEFKRIVQRIKDFLANLVPR-OH; N-terminus and C-terminus assumed) | 5 µM
7 | CC[C@H](C)[C@H](NC(=O)[C@H](CCCCN)NC(=O)[C@H](CCC(=O)O)NC(=O)[C@H](CCCCN)NC(=O)[C@H](CO)NC(=O)[C@H](C)NC(=O)[C@H](CCCNC(=N)N)NC(=O)[C@H](Cc1ccccc1)NC(=O)[C@H](Cc1ccccc1)NC(=O)[C@H](CC(=O)O)NC(=O)CNC(=O)[C@H](CC(C)C)NC(=O)[C@@H](N)CC(C)C)C(=O)NCC(=O)N[C@@H](CCCCN)C(=O)N[C@@H](CCC(=O)O)C(=O)N[C@@H](Cc1ccccc1)C(=O)N[C@@H](CCCCN)C(=O)N[C@@H](CCCNC(=N)N)C(=O)N[C@H](C(=O)N[C@H](C(=O)N[C@@H](CCC(N)=O)C(=O)N[C@@H](CCCNC(=N)N)C(=O)N[C@H](C(=O)N[C@@H](CCCCN)C(=O)N[C@@H](CC(=O)O)C(=O)N[C@@H](Cc1ccccc1)C(=O)N[C@@H](CC(C)C)C(=O)N[C@@H](CCCNC(=N)N)C(=O)N[C@@H](CC(N)=O)C(=O)N[C@@H](CC(C)C)C(=O)N[C@H](C(=O)N1CCC[C@H]1C(=O)N[C@@H](CCCNC(=N)N)C(=O)O)C(C)C)[C@@H](C)CC)C(C)C)[C@@H](C)CC [LL-34—K8A] (H-LLGDFFRASKEKIGKEFKRIVQRIKDFLRNLVPR-OH; N-terminus and C-terminus assumed) | 5 µM
